Assay: Case Study 5: Patient A, high cholesterol, blood tests
Assay type: in vivo, human
Conditions: patient-reported, earlier statin use
Experimental: Patient A is a person who has had high cholesterol for approximately 20 years, and who is reasonably fit and is not overweight.
Patient A has been taking 100 mL of the composition of Example 1 each day for a period of 3 weeks. The results of a blood test on 14 Jan. 2015 (prior to taking the composition of Example 1) and a blood test on 24 Jun. 2015 (after taking the composition of Example 1 for 3 weeks) gave the results in Table 6: […]

Compound: CC(C)c1c(C(=O)Nc2ccccc2)c(-c2ccccc2)c(-c2ccc(F)cc2)n1CC[C@@H](O)C[C@@H](O)CC(=O)O [Lipitor]
- side effects: muscle aches and pain, tiredness, joint pain and a general feeling of not being well

From patent US20200113982A1, “Composition and Uses Thereof” (Arborvitae Health and Wellbeing Pty. Ltd., priority 2015, published 2020)
